Results reported in US20240199651A1, “ANTIBACTERIAL COMPOUNDS” (JANSSEN SCIENCES IRELAND UNLIMITED COMPANY, priority 2021, published 2024).
Like-named read-outs stand apart in the source and are kept apart here.

Assay: Mitochondrial toxicity (Glu/Gal) assay
Type: cell-based
Details: for Score: mitotoxicity score, Glu/Gal assay; for Δ IC50, glu/IC50, gal: ratio IC50 glu / IC50 gal
Text: The compounds of the invention/examples may have advantages associated with in vitro potency, kill kinetics (i.e. bactericidal effect) in vitro, PK properties, food effect, safety/toxicity (including liver toxicity, coagulation, 5-LO oxygenase), metabolic stability, Ames II negativity, MNT negativity, aqueous based solubility (and ability to formulate) and/or cardiovascular effect e.g. on animals (e.g. anesthetized guinea pig). Data that is generated/calculated may be obtained using standard methods/assays, for instance that are available in the literature or which may be performed by a supplier (e.g. Microsomal Stability Assay—Cyprotex, Mitochondrial toxicity (Glu/Gal) assay—Cyprotex, as well as literature CYP cocktail inhibition assays). GSH can be measured (reactive metabolites, glucuronidation) to observe if a dihydrodiol is observed by LCMS (fragmentation ions), which would correspond to a dihydroxylation on the core heterocycle.

[1] = galactose medium (Glu/Gal mitotoxicity assay), read-out: IC50, gal
[2] = glucose medium (Glu/Gal mitotoxicity assay), read-out: IC50, glu

Compound | Score | Δ IC50, glu/IC50, gal | IC50 (read-out: IC50, gal) | IC50 (read-out: IC50, glu) | IC50 [1] | IC50 [2]
CCc1nc2ccc(Cl)cn2c1C(=O)NCc1ccc(-c2nc3n(n2)CCN(S(=O)(=O)C(F)(F)F)C3)c(F)c1 [Compound 3] | [x]1 | 0.91 | 73.1 µM | 66.2 µM | – | –
O=C(NCc1ccc(-c2nc3n(n2)CCN(S(=O)(=O)C(F)(F)F)C3)c(F)c1)c1c(C(F)F)nc2ccc(Cl)cn12 [Compound 5] | [x]1 | 0.96 | 117 µM | 112 µM | – | –
CCc1nc2cc(C)c(Cl)cn2c1C(=O)NCc1ccc(-c2nc3n(n2)CCN(S(=O)(=O)C(F)(F)F)C3)c(F)c1 [Compound 9] | [x]1 | 1.15 | 19.9 µM | 22.9 µM | – | –
CCc1nc2c(Cl)c(OC)ccn2c1C(=O)NCc1ccc(-c2nc3n(n2)CCN(S(=O)(=O)C(F)(F)F)C3)c(F)c1 [Compound 11] | – | >2.93 | 68.2 µM | > 200 µM | – | –
CCc1nc2cc(OC)c(Cl)cn2c1C(=O)NCc1cnc(-c2nc3n(n2)CCN(S(=O)(=O)C(F)(F)F)C3)c(F)c1 [Compound 16] | – | – | – | – | > 200 µM | > 200 µM
CCc1nc2ncc(F)cn2c1C(=O)NCc1ccc(-c2nc3n(n2)CCN(S(=O)(=O)C(F)(F)F)C3)c(F)c1 [Compound 17] | – | – | – | – | > 200 µM | > 200 µM
CCc1nc2cc(C)c(Cl)cn2c1C(=O)NCc1cnc(-c2nc3n(n2)CCN(S(=O)(=O)C(F)(F)F)C3)c(F)c1 [Compound 20] | [x]1 | >1.3 | 154 µM | > 200 µM | – | –
CCc1nc2c(F)cc(Cl)cn2c1C(=O)NCc1ccc(-c2nc3n(n2)CCN(S(=O)(=O)C(F)(F)F)C3)cc1 [Compound 21] | [x]1 | 1.65 | 59.4 µM | 97.9 µM | – | –
CCc1nc2ccc(F)cn2c1C(=O)NCc1ccc(-c2nc3n(n2)CCN(S(=O)(=O)C(F)(F)F)C3)cc1 [Compound 22] | [x]1 | 1.51 | 62.6 µM | 94.7 µM | – | –
CCc1nc2cc(C)c(C)cn2c1C(=O)NCc1ccc(-c2nc3n(n2)CCN(S(=O)(=O)C(F)(F)F)C3)cc1 [Compound 23] | – | – | – | – | > 200 µM | > 200 µM
CCc1nc2cc(Cl)c(C)cn2c1C(=O)NCc1ccc(-c2nc3n(n2)CCN(S(=O)(=O)C(F)(F)F)C3)cc1 [Compound 25] | – | >2.26 | 22.1 µM | > 50 µM | – | –
CCc1nc2ncc(C(C)C)cn2c1C(=O)NCc1ccc(-c2nc3n(n2)CCN(S(=O)(=O)C(F)(F)F)C3)cc1 [Compound 26] | – | – | – | – | > 200 µM | > 200 µM
CCc1nc2ccc(C3CC3)cn2c1C(=O)NCc1ccc(-c2nc3n(n2)CCN(S(=O)(=O)C(F)(F)F)C3)cc1 [Compound 27] | – | 2.34 | 44.5 µM | 104 µM | – | –
CCc1nc2ncc(C3CC3)cn2c1C(=O)NCc1ccc(-c2nc3n(n2)CCN(S(=O)(=O)C(F)(F)F)C3)cc1 [Compound 28] | – | – | > 200 µM | > 200 µM | – | –
Cc1cnc2nc(C)c(C(=O)NCc3ccc(-c4nc5n(n4)CCN(S(=O)(=O)C(F)(F)F)C5)cc3)n2c1 [Compound 29] | – | – | – | – | > 200 µM | > 200 µM
Cc1ccc2nc(C3CC3)c(C(=O)NCc3ccc(-c4nc5n(n4)CCN(S(=O)(=O)C(F)(F)F)C5)cc3)n2c1 [Compound 30] | [x]1 | 1.35 | 71.1 µM | 95.7 µM | – | –
CCc1nc2n(c1C(=O)NCc1ccc(-c3nc4n(n3)CCN(S(=O)(=O)C(F)(F)F)C4)cc1)CCCC2 [Compound 31] | – | – | – | – | > 200 µM | > 200 µM
Cc1cn2c(C(=O)NCc3ccc(-c4nc5n(n4)CCN(S(=O)(=O)C(F)(F)F)C5)cc3)c(C)nc2s1 [Compound 32] | [x]3 | >12.72 | 15.7 µM | > 200 µM | – | –
CCc1nc2nc(C)c(C)cn2c1C(=O)NCc1ccc(-c2nc3n(n2)CCN(S(=O)(=O)C(F)(F)F)C3)cc1 [Compound 33] | [x]1 | <0.98 | > 200 µM | 196 µM | – | –
Cc1ccc2nc(C)c(C(=O)NCc3ccc(-c4nc5n(n4)CCN(S(=O)(=O)C(F)(F)F)C5)cc3)n2c1 [Compound 34] | [x]0 | >1.13 | 44.2 µM | > 50 µM | – | –
CCc1nc2ccc(C(C)C)cn2c1C(=O)NCc1ccc(-c2nc3n(n2)CCN(S(=O)(=O)C(F)(F)F)C3)cc1 [Compound 35] | [x]0 | >1.25 | 40.1 µM | > 50 µM | – | –
CCc1nc2sc(C)cn2c1C(=O)NCc1ccc(-c2nc3n(n2)CCN(S(=O)(=O)C(F)(F)F)C3)cc1 [Compound 36] | [x]0 | >1.26 | 79.5 µM | > 100 µM | – | –
CCc1nc2ncc(C)cn2c1C(=O)NCc1ccc(-c2nc3n(n2)CCNC3)cc1 [Compound 37] | – | – | – | – | > 200 µM | > 200 µM
Cc1nc2sc(Cl)cn2c1C(=O)NCc1ccc(-c2nc3n(n2)CCN(S(=O)(=O)C(F)(F)F)C3)cc1 [Compound 38] | [x]3 | >11.52 | 8.68 µM | > 100 µM | – | –

Compound | Score | Δ IC50, glu/IC50, gal | IC50 (read-out: IC50, gal) | IC50 (read-out: IC50, glu) | IC50 [1] | IC50 [2]
CCc1nc2ncc(C)cn2c1C(=O)NCc1ccc(-c2nc3n(n2)CCN(C(C)=O)C3)cc1 [Compound 40] | – | – | – | – | > 200 µM | > 200 µM
CCc1nc2ncc(C)cn2c1C(=O)NCc1ccc(-c2nc3n(n2)CCN(S(=O)(=O)N(C)C)C3)cc1 [Compound 41] | – | – | – | – | > 200 µM | > 200 µM
CCc1nc2ncc(C)cn2c1C(=O)NCc1ccc(-c2nc3n(n2)CCN(C(=O)C(F)(F)F)C3)cc1 [Compound 43] | – | – | – | – | > 200 µM | > 200 µM
CCc1nc2nc3c(cn2c1C(=O)NCc1ccc(-c2nc4n(n2)CCN(S(=O)(=O)C(F)(F)F)C4)cc1)CCC3 [Compound 45] | – | – | – | – | > 100 µM | > 100 µM
CCc1nc2ccc(C)cn2c1C(=O)NCc1ccc(-c2nc3n(n2)CCN(C(C)=O)C3)cc1 [Compound 46] | – | – | – | – | > 200 µM | > 200 µM
CCc1nc2ccc(C)cn2c1C(=O)NCc1ccc(-c2nc3n(n2)CCN(S(=O)(=O)N2CCCC2)C3)cc1 [Compound 48] | – | – | – | – | > 200 µM | > 200 µM
CCc1nc2ncc(C)cn2c1C(=O)NCc1ccc(-c2nc3n(n2)CCN(C)C3)cc1 [Compound 50] | – | – | – | – | > 200 µM | > 200 µM
CCc1nc2ccc(C)cn2c1C(=O)NCc1ccc(-c2nc3n(n2)CCN(S(=O)(=O)N(C)C)C3)cc1 [Compound 51] | – | – | – | – | > 200 µM | > 200 µM
CCc1nc2ccc(C)cn2c1C(=O)NCc1ccc(-c2nc3n(n2)CCNC3)cc1 [Compound 52] | – | – | – | – | > 200 µM | > 200 µM
CCc1nc2ccc(C)cn2c1C(=O)NCc1ccc(-c2nc3n(n2)CCN(C(=O)C(F)(F)F)C3)cc1 [Compound 53] | – | – | – | – | > 200 µM | > 200 µM
CCc1nc2ncc(C)cn2c1C(=O)NCc1ccc(-c2nc3n(n2)CCN(CCOC)C3)cc1 [Compound 54] | – | – | – | – | > 200 µM | > 200 µM
CCc1nc2ccc(C)cn2c1C(=O)NCc1ccc(-c2nc3n(n2)CCN(CCOC)C3)cc1 [Compound 55] | [x]1 | >1.15 | 174 µM | > 200 µM | – | –
CCc1nc2ccc(C)cn2c1C(=O)NCc1ccc(-c2nc3n(n2)CCN(C)C3)cc1 [Compound 56] | – | – | – | – | > 200 µM | > 200 µM
CCc1nc2ncc(C)cn2c1C(=O)NCc1ccc(-c2nc3n(n2)CCN(S(=O)(=O)C(F)(F)F)C3)s1 [Compound 57] | – | – | – | – | > 200 µM | > 200 µM
CCc1nc2ncc(C)cn2c1C(=O)NCc1ccc(C2CN(c3nc4n(n3)CCN(S(=O)(=O)C(F)(F)F)C4)C2)cc1 [Compound 58] | – | >3.44 | 58.2 µM | > 200 µM | – | –
CCc1nc2ncc(C)cn2c1C(=O)NCc1ccc(C2CCN(c3nc4n(n3)CCN(S(=O)(=O)C(F)(F)F)C4)CC2)cc1 [Compound 59] | [x]3 | >11.38 | 17.6 µM | > 200 µM | – | –
CCc1nc2ncc(C)cn2c1C(=O)NCc1ccc(N2CCC(c3nc4n(n3)CCN(S(=O)(=O)C(F)(F)F)C4)CC2)cc1 [Compound 60] | – | >3.56 | 56.2 µM | > 200 µM | – | –
CCc1nc2ncc(C)cn2c1C(=O)NCc1ccc(-c2nc3n(n2)CCN(CCC#N)C3)cc1 [Compound 61] | – | – | – | – | > 200 µM | > 200 µM
CCc1nc2ccc(C)cn2c1C(=O)NCc1ccc(-c2nc3n(n2)CCN(CCC#N)C3)cc1 [Compound 62] | – | – | – | – | > 200 µM | > 200 µM
CCc1nc2ncc(C)cn2c1C(=O)NCc1ncc(-c2nc3n(n2)CCN(S(=O)(=O)C(F)(F)F)C3)s1 [Compound 64] | – | – | – | – | > 200 µM | > 200 µM
CCc1nc2n(c1C(=O)NCc1ccc(-c3nc4n(n3)CCN(S(=O)(=O)C(F)(F)F)C4)cc1)CCN(C)C2 [Compound 65] | – | – | – | – | > 200 µM | > 200 µM
CCc1nc2ncc(C)cn2c1C(=O)NCc1cccc(-c2nc3n(n2)CCN(S(=O)(=O)C(F)(F)F)C3)c1 [Compound 67] | [x]1 | >1.34 | 149 µM | > 200 µM | – | –
CCc1nc2ncc(C)cn2c1C(=O)NCc1ccc(C2CCN(c3nc4n(n3)CCN(S(=O)(=O)C(F)(F)F)C4)C2)cc1 (stereo not shown) [Compound 69] | [x]3 | 11.37 | 15.3 µM | 174 µM | – | –
